Measured values taken from patent publication US20120108669A1, “METHOD OF TREATING SLEEP DISORDERS USING EPLIVANSERIN” (SANOFI-AVENTIS, priority 2008, published 2012).

Legend:
[1] = system: patients with chronic (primary) insomnia characterized by sleep maintenance difficulties; test: Long-term studies LTE6217 and LTE6262 together: patient global impression, daytime function, residual effects; type: in vivo, human
From the text: (§1) The Phase 3 program of development of eplivanserin in the treatment of patients with chronic (primary) insomnia characterized by sleep maintenance difficulties consisted of 3 randomized, double-blind (DB), placebo-controlled, efficacy and safety studies designed to assess the efficacy of eplivanserin on sleep maintenance either using polysomnography (PSG) recordings (6-week study EFC6220) or patient-reported outcome (12-week studies LTE6217 and LTE6262) collected daily on sleep questionnaires.
(§2) They were all double-blind (DB), randomized, placebo-controlled studies. In all studies, treatment period was preceded by a one week, placebo run-in period, designed to check selection criteria for insomnia based on patient reported sleep parameters collected on the daily sleep questionnaires (Studies LTE6217, and LTE6262) or based on PSG recordings during two screening nights in a sleep laboratory (Study EFC6220). Treatment period was followed by a placebo run-out period of 2 weeks designed to assess the effect of abrupt treatment discontinuation.
(§3) Studies LTE6217 and LTE6262 measured the efficacy of eplivanserin in real life conditions of use at home by collecting daily sleep parameters reported by patients through an Interactive Voice Response System (IVRS).

[2] = system: patients exposed to eplivanserin; test: Example 3: diverticulitis in pooled phase 2 and 3 trials; type: in vivo, human; settings: for Incidence of Diverticulitis by sub-group: all eplivanserin doses
From the text: Hereafter are the observations made in pooled phase 2 and 3 trials with eplivanserin or pharmaceutically acceptable salts or esters thereof.
The majority of patients were non-elderly, females, and Caucasian with a median age between 47 and 51 years across treatment groups.

[3] = system: patients with chronic (primary) insomnia characterized by sleep maintenance difficulties; test: Study EFC6220: 6-week polysomnography (PSG) study of sleep maintenance; type: in vivo, human; settings: for PSG-NAW (number of awakenings) LS mean: p<0.0001
From the text: as §1, §2
Study EFC6220 was designed to measure the pharmacodynamic activity of eplivanserin on sleep maintenance using PSG recordings in a sleep laboratory. Polysomnograms were recorded in standard conditions during 8 hours in bed.

[4] = system: patients with chronic (primary) insomnia characterized by sleep maintenance difficulties; test: Study LTE6262: 12-week patient-reported sleep parameters (daily sleep questionnaire, IVRS); type: in vivo, human; settings: 5 mg/day; for Quality of sleep Difference from Placebo LS Mean / Refreshing QoS Difference from Placebo LS Mean / pr-NAW Difference from Placebo LS Mean / Quality of sleep LS Mean / Refreshing QoS LS Mean / pr-NAW LS Mean: MMRM, ITT; for Quality of sleep LS Mean / Refreshing QoS LS Mean / pr-NAW LS Mean: mean change
From the text: as §1, §2, §3
In these tables, values are given as an amount of time expressed in minutes and seconds (mm:ss).

healthy male subjects = test: Example 2: single-dose cross-over study of sleep (EEG) and daytime functioning; type: in vivo, human
Method: The effects of eplivanserin or pharmaceutically acceptable salts or esters thereof on sleep and daytime functioning in healthy subjects were examined.
Double-blind, randomized, placebo (PBO)-controlled, 4-period, cross-over study with a 1-2-week washout between each period. Single oral doses of eplivanserin or pharmaceutically acceptable salts or esters thereof 1, 10 and 40 mg and PBO were given to healthy male subjects in either the evening (pm) or the morning (am; n=16). Sleep was assessed objectively using an EEG and subjectively by Leeds Sleep Evaluation Questionnaire. Next-day psychomotor function, memory and arousal were measured objectively via Critical Flicker Fusion (CFF), Choice Reaction Time, Compensatory Tracking and Sternberg memory-scanning tasks. Subjective assessment of drug activity was performed using Line Analogue Rating Scales.

[5] = system: patients with chronic (primary) insomnia characterized by sleep maintenance difficulties; test: Study LTE6217: 12-week patient-reported sleep parameters (daily sleep questionnaire, IVRS); type: in vivo, human; settings: 5 mg/day, MMRM, ITT; for Quality of sleep LS Mean (SEM) / Refreshing quality of sleep LS Mean (SEM) / pr-NAW LS Mean (SEM): mean change
From the text: as §1, §2
Studies LTE6217 and LTE6262 measured the efficacy of eplivanserin in real life conditions of use at home by collecting daily sleep parameters reported by patients through an Interactive Voice Response System (IVRS). […]

[6] = cited from earlier work
[7] = 5 mg/day, in comparison with placebo, after 6 and 12 weeks
[8] = all Phase 2-3 studies, all doses
[9] = single oral 1, 10 and 40 mg, morning or evening, P=0.0001 vs PBO

CN(C)CCO/N=C(/C=C/c1ccc(O)cc1)c1ccccc1F [eplivanserin, (1Z, 2E)-1-(2-fluorophenyl)-3-(4-hydroxyphenyl)-prop-2-en-1-one-O-(2-dimethylaminoethyl)oxime]
PGI-item 1 [1, 7]: aid to sleep | PGI-item 3 [1, 7]: increasing duration of sleep | improvement of activities related to work and hobby activities ([1]; after 12 weeks, Study LTE6262 and meta-analysis of LTE6262 and LTE6217, compared with placebo): positive effect | "sleepiness in the morning" and "ability to concentrate" ([1]; reported by insomniac patients, compared with placebo): significantly favourable effect | potential for residual effects (next-day impairment) ([1]; safety analyses): devoid of next-day impairment | final outcome of diverticulitis ([2]; 30 patients): Recovery was reported as final outcome in all patients, except 2 | median time to onset of diverticulitis ([2]; 30 patients with diverticulitis): 58 days | Incidence of Diverticulitis by sub-group ([2]; Age groups (years): <65): 18/2636 (0.7%) (0.41 to 1.08) | Incidence of Diverticulitis by sub-group ([2]; Age groups (years): >=65): 12/394 (3.0%) (1.58 to 5.26) | Incidence of Diverticulitis by sub-group ([2]; BMI (kg/m2): 25-30): 17/1292 (1.3%) (0.77 to 2.10) | Incidence of Diverticulitis by sub-group ([2]; BMI (kg/m2): <25): 6/1121 (0.5%) (0.20 to 1.16) | Incidence of Diverticulitis by sub-group ([2]; BMI (kg/m2): >=30): 7/617 (1.1%) (0.46 to 2.32) | Incidence of Diverticulitis by sub-group ([2]; Concomitant drugs that inhibit prostaglandin synthesis: No): 15/2161 (0.7%) (0.39 to 1.14) | Incidence of Diverticulitis by sub-group ([2]; Concomitant drugs that inhibit prostaglandin synthesis: Yes): 15/869 (1.7%) (0.97 to 2.83) | Incidence of Diverticulitis by sub-group ([2]; Concomitant opioids: No): 27/2999 (0.9%) (0.59 to 1.31) | Incidence of Diverticulitis by sub-group ([2]; Concomitant opioids: Yes): 3/31 (9.7%) (2.04 to 25.75) | Incidence of Diverticulitis by sub-group ([2]; Creatinine clearance at baseline (ml/min): Mild: [50, 80[): 11/669 (1.6%) (0.82 to 2.92) | Incidence of Diverticulitis by sub-group ([2]; Creatinine clearance at baseline (ml/min): Moderate/Severe: <50): 1/44 (2.3%) (0.06 to 12.02) | Incidence of Diverticulitis by sub-group ([2]; Creatinine clearance at baseline (ml/min): Normal: >=80 or Missing): 18/2317 (0.8%) (0.46 to 1.23) | Incidence of Diverticulitis by sub-group ([2]; Gender: Female): 18/1651 (1.1%) (0.65 to 1.72) | Incidence of Diverticulitis by sub-group ([2]; Gender: Male): 12/1379 (0.9%) (0.45 to 1.52) | Incidence of Diverticulitis by sub-group ([2]; Medical history of constipation: No): 27/2943 (0.9%) (0.61 to 1.33) | Incidence of Diverticulitis by sub-group ([2]; Medical history of constipation: Yes): 3/87 (3.4%) (0.72 to 9.75) | Incidence of Diverticulitis by sub-group ([2]; Medical history of diverticular disease (includes diverticulitis): No): 18/2984 (0.6%) (0.36 to 0.95) | Incidence of Diverticulitis by sub-group ([2]; Medical history of diverticular disease (includes diverticulitis): Yes): 12/46 (26.1%) (14.27 to 41.13) | Incidence of Diverticulitis by sub-group ([2]; Medical history of diverticulitis: No): 23/3005 (0.8%) (0.49 to 1.15) | Incidence of Diverticulitis by sub-group ([2]; Medical history of diverticulitis: Yes): 7/25 (28.0%) (12.07 to 49.39) | Incidence of Diverticulitis by sub-group ([2]; Race: Asian/Oriental/Other): 0/138 | Incidence of Diverticulitis by sub-group ([2]; Race: Black): 1/162 (0.6%) (0.02 to 3.39) | Incidence of Diverticulitis by sub-group ([2]; Race: Caucasian): 29/2730 (1.1%) (0.71 to 1.52) | exposure adjusted incidence rate of diverticulitis [2, 8]: 3.32 patients with an event per 100 patient-years | patients exposed who developed diverticulitis [2, 8]: 1% | patients exposed who developed diverticulitis ([2]; all Phase 2-3 studies, all doses, n/N): 30/3030 | cumulative incidence rate of diverticulitis ([2]; at Week 24, all doses): about 1.6% | time of diverticulitis events after treatment initiation ([2]; clinical trials in patients with sleep disorders): two months on average | duration of diverticulitis episodes, mean ([2]; from the onset of the event): 23 days | duration of diverticulitis episodes, median ([2]; from the onset of the event): 17 days | total episodes of diverticulitis ([2]; in the 30 patients): 39 | non-serious cases of diverticulitis ([2]; of 30 patients): 23 | serious cases of diverticulitis ([2]; of 30 patients): 7 | episodes of diverticulitis of mild intensity ([2]; per Investigator's judgment): Three out of 39 | episodes of diverticulitis of moderate intensity ([2]; per Investigator's judgment): 26/39 | episodes of diverticulitis of severe intensity ([2]; per Investigator's judgment): 10/39 | sleep onset (PSG-LPS and pr-SOL) ([3]; 5 mg): did not affect sleep onset | percentage of time spent in sleep Stages 3&4 (slow wave sleep) ([3]; 5 mg/day compared with placebo): increased percentage of time | sleep Stage 1 ([3]; 5 mg/day compared with placebo): decrease of Stage 1 | PSG-NAW (number of awakenings) LS mean ([3]; Week 3, 5 mg): −1.74 | PSG-WASO (Wake after sleep onset) ([3]; Week 3 and Week 6, difference with placebo did not reach statistical significance at Week 6): decreasing PSG-WASO | PSG-NAW (number of awakenings) LS mean ([3]; Week 6, 5 mg): −1.82 | number of brief awakenings (<1 min) ([3]; compared to placebo): decreased the number of brief awakenings | QoS (quality of sleep) ([3]; in vivo): improved | REM (rapid eye movement) sleep ([3]; in vivo): not affected | SWS/WASO+Stage 1 index ([3]; in vivo): increase of SWS/WASO+Stage 1 index | persistence of effect on sleep maintenance (pr-WASO) ([4]; observed from Day 1): persisted up to 1 year of treatment | Quality of sleep Difference from Placebo LS Mean ([4]; Week 6): −0.13 | Refreshing QoS Difference from Placebo LS Mean ([4]; Week 6): −0.13 | pr-NAW Difference from Placebo LS Mean ([4]; Week 6): −0.34 | Quality of sleep LS Mean ([4]; Week 6): −0.58 | Refreshing QoS LS Mean ([4]; Week 6): −0.55 | pr-NAW LS Mean ([4]; Week 6): −0.99 | Quality of sleep Difference from Placebo LS Mean ([4]; Week 12): −0.14 | Refreshing QoS Difference from Placebo LS Mean ([4]; Week 12): −0.15 | pr-NAW Difference from Placebo LS Mean ([4]; Week 12): −0.35 | Quality of sleep LS Mean ([4]; Week 12): −0.63 | Refreshing QoS LS Mean ([4]; Week 12): −0.60 | pr-NAW LS Mean ([4]; Week 12): −1.08 | Sleep efficiency (time asleep/time in bed) (healthy male subjects; P=0.0004 vs PBO): significantly improved | number of awakenings ≧120 s (healthy male subjects; P=0.03 vs PBO): significantly reduced | CFF threshold detection (healthy male subjects; at all doses): slight decrease | Times to sleep onset and total sleep time (healthy male subjects; in vivo): unaffected | treatment-emergent AEs (healthy male subjects; in vivo): No serious or severe treatment-emergent AEs were reported | SWS (healthy male subjects; regardless of dosage or dose timing (morning or evening)): doubled | next-day objective psychomotor function or memory tests, subjective ratings of 'hangover' or CNS sedation (healthy male subjects; regardless of dose, or am or pm administration): no detrimental effects | 'deep'/slow-wave sleep (SWS) time (healthy male subjects; [9]): significantly increased | Stage 2 (light) sleep (healthy male subjects; [9]): decreased | Quality of sleep Difference from Placebo LS Mean ([5]; Week 6): −0.11 | Refreshing quality of sleep Difference from Placebo LS Mean ([5]; Week 6): −0.11 | pr-NAW Difference from Placebo LS Mean ([5]; Week 6): −0.39 | Quality of sleep LS Mean (SEM) ([5]; Week 6): −0.65 (0.02) | Refreshing quality of sleep LS Mean (SEM) ([5]; Week 6): −0.62 (0.02) | pr-NAW LS Mean (SEM) ([5]; Week 6): −1.16 (0.04) | Quality of sleep Difference from Placebo LS Mean ([5]; Week 12): −0.10 | Refreshing quality of sleep Difference from Placebo LS Mean ([5]; Week 12): −0.09 | pr-NAW Difference from Placebo LS Mean ([5]; Week 12): −0.33 | Quality of sleep LS Mean (SEM) ([5]; Week 12): −0.73 (0.03) | Refreshing quality of sleep LS Mean (SEM) ([5]; Week 12): −0.70 (0.03) | pr-NAW LS Mean (SEM) ([5]; Week 12): −1.27 (0.04) | half-life time ([6]; average value): 50 h | absorption (well absorbed) ([6]; in vivo): > 70%
